Laboratory results from the NIST ThermoML archive (doi:10.1016/j.jct.2010.07.016).

Key:
[1] = excess molar enthalpy (molar enthalpy of mixing); xn = mol fraction of the nth substance listed; settings: 308.15 K, 101 kPa, Liquid, Drop calorimeter
[2] = xn = mol fraction of the nth substance listed; settings: 308.15 K, 101 kPa, Liquid; for excess molar volume: Direct dilatometry; for speed of sound: Linear variable-path acoustic interferometer

Cc1ccccc1C [1,2-dimethylbenzene] + C1CCOCC1
Settings	excess molar enthalpy [kcal/mol]	excess molar volume [m3/mol]	speed of sound [m/s]
[1], x2 = 0.0587	-0.00636	–	–
[1], x2 = 0.0691	-0.00729	–	–
[1], x2 = 0.0838	-0.00851	–	–
[1], x2 = 0.1451	-0.0123	–	–
[1], x2 = 0.1809	-0.0137	–	–
[1], x2 = 0.2454	-0.0147	–	–
[1], x2 = 0.3023	-0.0141	–	–
[1], x2 = 0.3872	-0.0111	–	–
[1], x2 = 0.4425	-0.00817	–	–
[1], x2 = 0.5752	0.000574	–	–
[1], x2 = 0.647	0.00526	–	–
[1], x2 = 0.7443	0.0101	–	–
[1], x2 = 0.8495	0.0112	–	–
[1], x2 = 0.9437	0.00638	–	–
[2], x2 = 0.0536	–	-1.2e-08	–
[2], x2 = 0.0643	–	-1.4e-08	–
[2], x2 = 0.0805	–	-1.7e-08	–
[2], x2 = 0.0854	–	–	1319
[2], x2 = 0.1127	–	-2.3e-08	–
[2], x2 = 0.1494	–	–	1315
[2], x2 = 0.1816	–	-3.4e-08	–
[2], x2 = 0.2134	–	–	1309
[2], x2 = 0.2834	–	–	1303
[2], x2 = 0.2975	–	-4.7e-08	–
[2], x2 = 0.3778	–	–	1293
[2], x2 = 0.3954	–	-5.3e-08	–
[2], x2 = 0.4756	–	–	1281
[2], x2 = 0.4935	–	-5.5e-08	–
[2], x2 = 0.5132	–	–	1277
[2], x2 = 0.52	–	-5.4e-08	–
[2], x2 = 0.5642	–	-5.3e-08	–
[2], x2 = 0.5668	–	–	1270
[2], x2 = 0.6124	–	–	1265
[2], x2 = 0.6421	–	-4.8e-08	–
[2], x2 = 0.7035	–	–	1254
[2], x2 = 0.7314	–	-4e-08	–
[2], x2 = 0.7866	–	–	1245
[2], x2 = 0.8645	–	–	1237
[2], x2 = 0.8832	–	-1.9e-08	–
[2], x2 = 0.9228	–	-1.3e-08	–
[2], x2 = 0.9344	–	–	1230
[2], x2 = 0.9545	–	–	1228

Cc1cccc(C)c1 [1,3-dimethylbenzene] + C1CCOCC1
Settings	excess molar enthalpy [kcal/mol]	excess molar volume [m3/mol]	speed of sound [m/s]
[1], x2 = 0.0474	-0.00437	–	–
[1], x2 = 0.086	-0.0071	–	–
[1], x2 = 0.1141	-0.00863	–	–
[1], x2 = 0.1754	-0.0107	–	–
[1], x2 = 0.26	-0.011	–	–
[1], x2 = 0.3488	-0.00872	–	–
[1], x2 = 0.4432	-0.00416	–	–
[1], x2 = 0.4765	-0.0022	–	–
[1], x2 = 0.5624	0.00311	–	–
[1], x2 = 0.6834	0.00978	–	–
[1], x2 = 0.7603	0.0122	–	–
[1], x2 = 0.8001	0.0126	–	–
[1], x2 = 0.8744	0.0112	–	–
[1], x2 = 0.9453	0.00643	–	–
[2], x2 = 0.0626	–	-6e-09	–
[2], x2 = 0.0923	–	–	1277
[2], x2 = 0.1258	–	-1.2e-08	–
[2], x2 = 0.1515	–	–	1273
[2], x2 = 0.1731	–	-1.7e-08	–
[2], x2 = 0.2161	–	–	1269
[2], x2 = 0.2459	–	-2.2e-08	–
[2], x2 = 0.285	–	–	1264
[2], x2 = 0.3278	–	–	1261
[2], x2 = 0.3452	–	-2.8e-08	–
[2], x2 = 0.3611	–	–	1259
[2], x2 = 0.4081	–	–	1256
[2], x2 = 0.4411	–	-3.2e-08	–
[2], x2 = 0.4621	–	–	1253
[2], x2 = 0.4801	–	-3.2e-08	–
[2], x2 = 0.5179	–	–	1250
[2], x2 = 0.5413	–	-3.2e-08	–
[2], x2 = 0.5568	–	–	1248
[2], x2 = 0.6033	–	-3.2e-08	–
[2], x2 = 0.6179	–	–	1244
[2], x2 = 0.6541	–	-3e-08	–
[2], x2 = 0.7078	–	–	1239
[2], x2 = 0.7113	–	-2.7e-08	–
[2], x2 = 0.7852	–	-2.2e-08	–
[2], x2 = 0.7889	–	–	1235
[2], x2 = 0.8646	–	–	1231
[2], x2 = 0.8934	–	-1.2e-08	–
[2], x2 = 0.9229	–	-9e-09	–

C1CCOCC1 [tetrahydropyran] + Cc1ccc(C)cc1
Settings	excess molar enthalpy [kcal/mol]	excess molar volume [m3/mol]	speed of sound [m/s]
[1], x1 = 0.0804	-0.00684	–	–
[1], x1 = 0.1402	-0.0127	–	–
[1], x1 = 0.2416	-0.0226	–	–
[1], x1 = 0.3002	-0.0274	–	–
[1], x1 = 0.3842	-0.0325	–	–
[1], x1 = 0.4706	-0.0349	–	–
[1], x1 = 0.5776	-0.0335	–	–
[1], x1 = 0.6454	-0.0302	–	–
[1], x1 = 0.6914	-0.0271	–	–
[1], x1 = 0.7432	-0.0228	–	–
[1], x1 = 0.7919	-0.0183	–	–
[1], x1 = 0.8476	-0.0129	–	–
[1], x1 = 0.9021	-0.0077	–	–
[1], x1 = 0.9415	-0.00423	–	–
[2], x1 = 0.0639	–	-2.2e-08	–
[2], x1 = 0.0784	–	–	1271
[2], x1 = 0.1503	–	-4.3e-08	–
[2], x1 = 0.1521	–	–	1267
[2], x1 = 0.2123	–	–	1263
[2], x1 = 0.2321	–	-5.5e-08	–
[2], x1 = 0.2835	–	-5.9e-08	–
[2], x1 = 0.2876	–	–	1258
[2], x1 = 0.3331	–	-6.1e-08	–
[2], x1 = 0.3342	–	–	1255
[2], x1 = 0.3832	–	-6.1e-08	–
[2], x1 = 0.4091	–	–	1251
[2], x1 = 0.4421	–	-6e-08	–
[2], x1 = 0.4953	–	–	1247
[2], x1 = 0.5127	–	-5.7e-08	–
[2], x1 = 0.5186	–	–	1245
[2], x1 = 0.5515	–	-5.4e-08	–
[2], x1 = 0.5684	–	–	1243
[2], x1 = 0.6027	–	-4.9e-08	–
[2], x1 = 0.6175	–	–	1241
[2], x1 = 0.6529	–	-4.4e-08	–
[2], x1 = 0.7077	–	–	1237
[2], x1 = 0.7211	–	-3.6e-08	–
[2], x1 = 0.7905	–	-2.7e-08	–
[2], x1 = 0.7909	–	–	1233
[2], x1 = 0.8666	–	–	1230
[2], x1 = 0.8673	–	-1.7e-08	–
[2], x1 = 0.9354	–	–	1227

C1CCOCC1 [tetrahydropyran] + Cc1ccccc1
Settings	excess molar enthalpy [kcal/mol]	excess molar volume [m3/mol]	speed of sound [m/s]
[1], x1 = 0.0445	-0.00681	–	–
[1], x1 = 0.0662	-0.0102	–	–
[1], x1 = 0.0837	-0.0129	–	–
[1], x1 = 0.1138	-0.0176	–	–
[1], x1 = 0.2154	-0.0324	–	–
[1], x1 = 0.2806	-0.0403	–	–
[1], x1 = 0.3031	-0.0427	–	–
[1], x1 = 0.397	-0.0502	–	–
[1], x1 = 0.5319	-0.0532	–	–
[1], x1 = 0.6305	-0.0492	–	–
[1], x1 = 0.7413	-0.0389	–	–
[1], x1 = 0.8325	-0.0268	–	–
[1], x1 = 0.9352	-0.0106	–	–
[1], x1 = 0.9727	-0.00447	–	–
[2], x1 = 0.0554	–	-3.1e-08	–
[2], x1 = 0.0673	–	-3.7e-08	–
[2], x1 = 0.085	–	-4.6e-08	–
[2], x1 = 0.0925	–	–	1259
[2], x1 = 0.1343	–	–	1258
[2], x1 = 0.1534	–	-7.9e-08	–
[2], x1 = 0.1789	–	–	1257
[2], x1 = 0.1861	–	-9.2e-08	–
[2], x1 = 0.2311	–	-1.1e-07	–
[2], x1 = 0.2587	–	–	1256
[2], x1 = 0.2942	–	-1.29e-07	–
[2], x1 = 0.3742	–	–	1254
[2], x1 = 0.4109	–	-1.53e-07	–
[2], x1 = 0.4263	–	–	1253
[2], x1 = 0.4815	–	–	1251
[2], x1 = 0.5187	–	–	1250
[2], x1 = 0.5273	–	-1.59e-07	–
[2], x1 = 0.5795	–	–	1248
[2], x1 = 0.6433	–	-1.46e-07	–
[2], x1 = 0.6765	–	–	1243
[2], x1 = 0.7122	–	–	1242
[2], x1 = 0.7215	–	-1.27e-07	–
[2], x1 = 0.7646	–	–	1239
[2], x1 = 0.8202	–	-9.3e-08	–
[2], x1 = 0.8487	–	–	1234
[2], x1 = 0.9252	–	–	1229
[2], x1 = 0.9297	–	-4e-08	–
[2], x1 = 0.9735	–	-1.6e-08	–

C1CCOCC1 [tetrahydropyran] + c1ccccc1
Settings	excess molar enthalpy [kcal/mol]	excess molar volume [m3/mol]	speed of sound [m/s]
[1], x1 = 0.0484	-0.00779	–	–
[1], x1 = 0.0757	-0.0123	–	–
[1], x1 = 0.0978	-0.016	–	–
[1], x1 = 0.1432	-0.0235	–	–
[1], x1 = 0.2425	-0.0384	–	–
[1], x1 = 0.311	-0.0467	–	–
[1], x1 = 0.385	-0.053	–	–
[1], x1 = 0.4982	-0.0565	–	–
[1], x1 = 0.6013	-0.0531	–	–
[1], x1 = 0.6875	-0.0456	–	–
[1], x1 = 0.7073	-0.0434	–	–
[1], x1 = 0.7832	-0.0334	–	–
[1], x1 = 0.8501	-0.0233	–	–
[1], x1 = 0.923	-0.0117	–	–
[2], x1 = 0.0555	–	–	1256
[2], x1 = 0.0684	–	-4.9e-08	–
[2], x1 = 0.1029	–	-6.9e-08	–
[2], x1 = 0.1165	–	–	1253
[2], x1 = 0.1472	–	–	1251
[2], x1 = 0.1673	–	-1.01e-07	–
[2], x1 = 0.1835	–	-1.08e-07	–
[2], x1 = 0.2223	–	–	1248
[2], x1 = 0.243	–	-1.29e-07	–
[2], x1 = 0.2728	–	–	1246
[2], x1 = 0.3143	–	-1.45e-07	–
[2], x1 = 0.3751	–	–	1241
[2], x1 = 0.4085	–	-1.56e-07	–
[2], x1 = 0.4395	–	–	1239
[2], x1 = 0.4821	–	–	1237
[2], x1 = 0.5291	–	-1.52e-07	–
[2], x1 = 0.5313	–	–	1238
[2], x1 = 0.599	–	-1.42e-07	–
[2], x1 = 0.6223	–	–	1233
[2], x1 = 0.6543	–	-1.3e-07	–
[2], x1 = 0.681	–	–	1231
[2], x1 = 0.7321	–	–	1230
[2], x1 = 0.7452	–	-1.05e-07	–
[2], x1 = 0.7823	–	-9.3e-08	–
[2], x1 = 0.8253	–	–	1228
[2], x1 = 0.8754	–	-5.7e-08	–
[2], x1 = 0.9123	–	–	1226
[2], x1 = 0.9539	–	-2.3e-08	–
